The text below walks through data of ChEMBL document CHEMBL5303766, “Data for DCP probe FHT-2344” (2022).

Experiment [1] deals with Delta-type opioid receptor (Homo sapiens) (UniProt P41143). The note with it: Compound concentration 10.0 uM.
In experiment [2] the target is Serine/threonine-protein kinase 26 (Homo sapiens) (UniProt Q9P289). The experiment can be described thus: MST4 SGC Tm panel (DSF). The note with it: for ΔTm: Compound concentration 10.0 uM.
Experiment [3] has as its target D(2) dopamine receptor (Homo sapiens) (UniProt P14416). Conditions: Compound concentration 10.0 uM.
In experiment [4] the target is Sigma intracellular receptor 2 (Homo sapiens) (UniProt Q5BJF2). Conditions: Compound concentration 10.0 uM.
For experiment [5], the target named is T1, Ephrin type-B receptor 3 (Homo sapiens) (UniProt P54753).
T1 sequence (whole entry): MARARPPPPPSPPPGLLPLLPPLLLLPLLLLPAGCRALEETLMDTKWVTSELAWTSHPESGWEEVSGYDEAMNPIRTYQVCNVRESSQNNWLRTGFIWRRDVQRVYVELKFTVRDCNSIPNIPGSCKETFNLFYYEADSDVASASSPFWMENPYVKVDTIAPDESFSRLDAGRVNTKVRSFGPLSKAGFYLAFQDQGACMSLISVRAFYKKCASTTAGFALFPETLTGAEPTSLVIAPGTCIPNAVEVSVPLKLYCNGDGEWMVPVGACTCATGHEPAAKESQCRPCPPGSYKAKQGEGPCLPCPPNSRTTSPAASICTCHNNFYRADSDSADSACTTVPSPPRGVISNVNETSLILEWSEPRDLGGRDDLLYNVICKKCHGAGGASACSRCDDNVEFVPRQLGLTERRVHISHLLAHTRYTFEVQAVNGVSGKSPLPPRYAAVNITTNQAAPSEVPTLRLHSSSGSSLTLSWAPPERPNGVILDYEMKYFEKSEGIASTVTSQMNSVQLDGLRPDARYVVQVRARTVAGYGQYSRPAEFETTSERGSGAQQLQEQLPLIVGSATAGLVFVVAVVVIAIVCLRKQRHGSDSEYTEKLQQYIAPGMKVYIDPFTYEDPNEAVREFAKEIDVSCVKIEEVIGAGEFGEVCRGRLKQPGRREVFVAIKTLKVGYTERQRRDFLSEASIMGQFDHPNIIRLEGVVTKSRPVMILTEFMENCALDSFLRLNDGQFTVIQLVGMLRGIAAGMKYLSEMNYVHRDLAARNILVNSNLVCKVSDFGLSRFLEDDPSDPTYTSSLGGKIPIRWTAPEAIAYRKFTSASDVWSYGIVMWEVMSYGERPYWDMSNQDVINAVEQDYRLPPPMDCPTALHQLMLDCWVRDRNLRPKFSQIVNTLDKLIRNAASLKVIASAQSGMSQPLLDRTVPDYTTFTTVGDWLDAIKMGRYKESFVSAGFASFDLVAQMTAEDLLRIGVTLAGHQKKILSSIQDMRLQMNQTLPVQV
As to the kind of experiment: EPHB3 SGC Tm panel (DSF). Conditions: for ΔTm: Compound concentration 10.0 uM.

For experiment [6], the target named is SWI/SNF-related matrix-associated actin-dependent regulator of chromatin subfamily A member 2 (Homo sapiens, UniProt P51531). The experiment can be described thus: Measurement of the ATPase catalytic activity using the ADP-Glo detection (SMARCA2). The experiment is classed as functional. (In general: In ADP-Glo the light output rises with the ADP produced.)

Experiment [7] addresses 5-hydroxytryptamine receptor 1B (Homo sapiens) (UniProt P28222). Conditions: Compound concentration 10.0 uM.
Experiment [8] has as its target Kappa-type opioid receptor (Homo sapiens) (UniProt P41145). The note with it: Compound concentration 10.0 uM.
Experiment [9] deals with Dual specificity tyrosine-phosphorylation-regulated kinase 1A (Homo sapiens) (UniProt Q13627). As to the kind of experiment: DYRK1A SGC Tm panel (DSF). The note with it: for ΔTm: Compound concentration 10.0 uM.
Experiment [10] deals with T2, Serine/threonine-protein kinase DCLK1 (Homo sapiens) (UniProt O15075).
T2 sequence (whole entry): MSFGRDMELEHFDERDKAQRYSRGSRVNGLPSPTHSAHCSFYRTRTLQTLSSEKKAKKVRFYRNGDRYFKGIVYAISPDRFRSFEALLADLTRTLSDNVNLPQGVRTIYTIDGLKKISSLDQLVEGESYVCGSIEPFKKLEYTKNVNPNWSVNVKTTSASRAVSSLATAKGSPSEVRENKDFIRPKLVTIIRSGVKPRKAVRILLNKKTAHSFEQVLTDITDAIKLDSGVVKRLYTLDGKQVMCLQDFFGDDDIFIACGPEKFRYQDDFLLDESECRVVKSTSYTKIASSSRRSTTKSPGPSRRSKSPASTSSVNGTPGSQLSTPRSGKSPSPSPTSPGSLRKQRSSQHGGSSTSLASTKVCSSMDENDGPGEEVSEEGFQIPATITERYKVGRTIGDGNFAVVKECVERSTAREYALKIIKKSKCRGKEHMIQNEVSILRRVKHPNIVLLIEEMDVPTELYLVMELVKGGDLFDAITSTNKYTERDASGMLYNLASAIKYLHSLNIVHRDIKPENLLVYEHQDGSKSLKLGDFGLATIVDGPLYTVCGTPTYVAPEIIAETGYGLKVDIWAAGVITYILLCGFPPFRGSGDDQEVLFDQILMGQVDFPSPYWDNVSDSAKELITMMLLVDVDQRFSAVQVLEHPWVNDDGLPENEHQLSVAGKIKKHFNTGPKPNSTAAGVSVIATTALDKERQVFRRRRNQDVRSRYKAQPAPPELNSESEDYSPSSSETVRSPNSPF
As to the kind of experiment: DCAMKL1 SGC Tm panel (DSF). Conditions: for ΔTm: Compound concentration 10.0 uM.

In experiment [11] the target is T3, Serine/threonine-protein kinase 3 (Homo sapiens) (UniProt Q13188).
T3 sequence (whole entry): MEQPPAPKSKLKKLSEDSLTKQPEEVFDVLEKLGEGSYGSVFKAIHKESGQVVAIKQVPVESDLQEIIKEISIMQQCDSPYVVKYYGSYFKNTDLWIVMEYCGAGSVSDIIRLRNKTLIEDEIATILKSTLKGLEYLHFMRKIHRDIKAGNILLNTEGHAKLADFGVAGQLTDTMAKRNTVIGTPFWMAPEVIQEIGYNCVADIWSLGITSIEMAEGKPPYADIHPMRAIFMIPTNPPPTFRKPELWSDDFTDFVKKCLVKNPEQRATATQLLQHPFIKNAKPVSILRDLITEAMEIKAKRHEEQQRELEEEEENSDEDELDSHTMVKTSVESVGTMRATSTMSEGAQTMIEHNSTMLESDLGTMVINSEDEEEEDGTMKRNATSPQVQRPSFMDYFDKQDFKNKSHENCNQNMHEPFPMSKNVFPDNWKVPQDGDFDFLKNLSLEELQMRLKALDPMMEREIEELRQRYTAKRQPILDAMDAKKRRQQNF
As to the kind of experiment: STK3 SGC Tm panel (DSF). The note with it: for ΔTm: Compound concentration 10.0 uM.

Experiment [12] deals with Mitogen-activated protein kinase 1 (Homo sapiens) (UniProt P28482). As to the kind of experiment: MAPK1 SGC Tm panel (DSF). Conditions: for ΔTm: Compound concentration 10.0 uM.
In experiment [13] the target is Alpha-2C adrenergic receptor (Homo sapiens) (UniProt P18825). Conditions: Compound concentration 10.0 uM.
In experiment [14] the target is Mitogen-activated protein kinase 10 (Homo sapiens) (UniProt P53779). As to the kind of experiment: MAPK10 SGC Tm panel (DSF). The note with it: for ΔTm: Compound concentration 10.0 uM.

Activity calls are given as the source filed them. The calls are words filed in the database; no cut-off is given here.

For orientation: inhibition means the relative decrease from the control value, in per cent. The IC50 is the concentration at which inhibition is half-maximal.

Sequence of Mitogen-activated protein kinase 1 (Homo sapiens) (P28482 whole entry): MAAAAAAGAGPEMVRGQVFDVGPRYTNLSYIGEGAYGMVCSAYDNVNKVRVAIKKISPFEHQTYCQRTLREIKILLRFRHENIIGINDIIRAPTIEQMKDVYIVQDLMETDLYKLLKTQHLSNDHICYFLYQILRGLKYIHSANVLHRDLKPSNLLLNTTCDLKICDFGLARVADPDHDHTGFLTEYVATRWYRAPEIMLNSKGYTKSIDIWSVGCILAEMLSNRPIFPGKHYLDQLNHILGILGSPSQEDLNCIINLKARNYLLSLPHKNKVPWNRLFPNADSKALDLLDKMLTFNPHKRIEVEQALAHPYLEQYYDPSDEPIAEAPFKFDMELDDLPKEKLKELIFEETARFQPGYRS
Sequence of Serine/threonine-protein kinase 26 (Homo sapiens) (Q9P289 2-416 limits assumed): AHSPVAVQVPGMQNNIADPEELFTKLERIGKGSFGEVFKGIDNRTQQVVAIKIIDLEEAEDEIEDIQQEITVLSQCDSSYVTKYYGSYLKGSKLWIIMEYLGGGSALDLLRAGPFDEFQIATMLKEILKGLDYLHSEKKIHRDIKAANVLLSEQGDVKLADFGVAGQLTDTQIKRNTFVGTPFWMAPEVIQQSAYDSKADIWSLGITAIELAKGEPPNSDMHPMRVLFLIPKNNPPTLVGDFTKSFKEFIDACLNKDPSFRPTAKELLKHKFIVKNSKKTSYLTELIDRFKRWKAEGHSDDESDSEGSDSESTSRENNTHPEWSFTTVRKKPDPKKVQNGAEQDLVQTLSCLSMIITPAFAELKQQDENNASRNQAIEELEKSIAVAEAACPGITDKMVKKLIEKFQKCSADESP
Sequence of Mitogen-activated protein kinase 10 (Homo sapiens) (P53779 whole entry): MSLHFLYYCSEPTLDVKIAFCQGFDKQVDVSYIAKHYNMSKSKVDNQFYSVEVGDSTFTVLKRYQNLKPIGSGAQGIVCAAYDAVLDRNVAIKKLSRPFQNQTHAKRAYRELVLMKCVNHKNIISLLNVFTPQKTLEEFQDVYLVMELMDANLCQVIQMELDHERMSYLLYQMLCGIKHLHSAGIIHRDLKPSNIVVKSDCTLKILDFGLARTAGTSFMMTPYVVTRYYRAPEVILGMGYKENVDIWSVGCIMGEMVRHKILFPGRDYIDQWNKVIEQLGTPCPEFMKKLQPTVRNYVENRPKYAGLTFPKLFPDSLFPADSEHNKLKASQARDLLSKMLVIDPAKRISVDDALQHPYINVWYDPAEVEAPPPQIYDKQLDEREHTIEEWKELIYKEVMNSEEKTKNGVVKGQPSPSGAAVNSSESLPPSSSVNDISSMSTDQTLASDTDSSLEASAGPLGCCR
Sequence of D(2) dopamine receptor (Homo sapiens) (P14416 whole entry): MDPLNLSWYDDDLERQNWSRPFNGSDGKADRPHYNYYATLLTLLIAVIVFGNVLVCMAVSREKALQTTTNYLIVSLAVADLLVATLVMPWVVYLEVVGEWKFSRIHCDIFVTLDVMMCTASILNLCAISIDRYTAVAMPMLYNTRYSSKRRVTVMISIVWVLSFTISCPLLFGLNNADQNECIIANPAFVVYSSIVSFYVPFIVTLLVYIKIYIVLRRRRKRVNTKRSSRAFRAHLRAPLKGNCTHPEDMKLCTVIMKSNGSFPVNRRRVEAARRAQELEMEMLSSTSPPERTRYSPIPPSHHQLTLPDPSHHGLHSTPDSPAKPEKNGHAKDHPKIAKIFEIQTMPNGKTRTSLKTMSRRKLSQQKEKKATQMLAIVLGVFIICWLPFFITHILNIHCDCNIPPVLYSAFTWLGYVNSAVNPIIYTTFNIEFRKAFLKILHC
Sequence of 5-hydroxytryptamine receptor 1B (Homo sapiens) (P28222 whole entry): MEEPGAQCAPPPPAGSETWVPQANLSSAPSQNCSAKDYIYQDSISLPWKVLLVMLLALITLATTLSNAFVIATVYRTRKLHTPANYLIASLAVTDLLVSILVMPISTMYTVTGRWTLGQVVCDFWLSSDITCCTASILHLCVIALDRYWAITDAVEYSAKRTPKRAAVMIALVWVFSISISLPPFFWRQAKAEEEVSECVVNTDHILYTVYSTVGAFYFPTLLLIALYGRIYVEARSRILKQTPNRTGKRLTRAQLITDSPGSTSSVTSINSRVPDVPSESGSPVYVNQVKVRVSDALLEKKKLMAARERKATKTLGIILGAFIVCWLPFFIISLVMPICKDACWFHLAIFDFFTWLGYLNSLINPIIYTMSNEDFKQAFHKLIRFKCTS
Sequence of Alpha-2C adrenergic receptor (Homo sapiens) (P18825 whole entry): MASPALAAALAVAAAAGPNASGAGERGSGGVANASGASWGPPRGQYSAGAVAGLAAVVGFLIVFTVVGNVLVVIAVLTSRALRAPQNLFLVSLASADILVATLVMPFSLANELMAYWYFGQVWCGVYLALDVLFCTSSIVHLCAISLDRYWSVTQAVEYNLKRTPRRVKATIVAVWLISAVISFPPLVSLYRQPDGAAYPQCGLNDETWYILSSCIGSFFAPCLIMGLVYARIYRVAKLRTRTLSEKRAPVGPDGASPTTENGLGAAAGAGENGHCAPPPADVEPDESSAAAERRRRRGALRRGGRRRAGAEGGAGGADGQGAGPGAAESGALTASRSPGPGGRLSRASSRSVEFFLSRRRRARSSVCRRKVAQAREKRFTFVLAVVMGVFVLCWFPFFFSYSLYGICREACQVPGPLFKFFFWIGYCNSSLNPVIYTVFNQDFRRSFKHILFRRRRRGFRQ
Sequence of Delta-type opioid receptor (Homo sapiens) (P41143 whole entry): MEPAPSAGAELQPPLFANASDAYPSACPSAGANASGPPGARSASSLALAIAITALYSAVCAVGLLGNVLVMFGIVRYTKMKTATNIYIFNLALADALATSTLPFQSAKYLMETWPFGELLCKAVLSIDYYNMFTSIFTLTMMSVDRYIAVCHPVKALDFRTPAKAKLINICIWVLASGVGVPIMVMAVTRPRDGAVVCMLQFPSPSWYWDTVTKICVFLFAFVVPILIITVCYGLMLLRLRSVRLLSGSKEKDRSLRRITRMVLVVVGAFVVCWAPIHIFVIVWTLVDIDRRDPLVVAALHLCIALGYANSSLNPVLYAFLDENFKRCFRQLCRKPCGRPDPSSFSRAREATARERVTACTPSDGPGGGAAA
Sequence of SWI/SNF-related matrix-associated actin-dependent regulator of chromatin subfamily A member 2 (P51531 whole entry): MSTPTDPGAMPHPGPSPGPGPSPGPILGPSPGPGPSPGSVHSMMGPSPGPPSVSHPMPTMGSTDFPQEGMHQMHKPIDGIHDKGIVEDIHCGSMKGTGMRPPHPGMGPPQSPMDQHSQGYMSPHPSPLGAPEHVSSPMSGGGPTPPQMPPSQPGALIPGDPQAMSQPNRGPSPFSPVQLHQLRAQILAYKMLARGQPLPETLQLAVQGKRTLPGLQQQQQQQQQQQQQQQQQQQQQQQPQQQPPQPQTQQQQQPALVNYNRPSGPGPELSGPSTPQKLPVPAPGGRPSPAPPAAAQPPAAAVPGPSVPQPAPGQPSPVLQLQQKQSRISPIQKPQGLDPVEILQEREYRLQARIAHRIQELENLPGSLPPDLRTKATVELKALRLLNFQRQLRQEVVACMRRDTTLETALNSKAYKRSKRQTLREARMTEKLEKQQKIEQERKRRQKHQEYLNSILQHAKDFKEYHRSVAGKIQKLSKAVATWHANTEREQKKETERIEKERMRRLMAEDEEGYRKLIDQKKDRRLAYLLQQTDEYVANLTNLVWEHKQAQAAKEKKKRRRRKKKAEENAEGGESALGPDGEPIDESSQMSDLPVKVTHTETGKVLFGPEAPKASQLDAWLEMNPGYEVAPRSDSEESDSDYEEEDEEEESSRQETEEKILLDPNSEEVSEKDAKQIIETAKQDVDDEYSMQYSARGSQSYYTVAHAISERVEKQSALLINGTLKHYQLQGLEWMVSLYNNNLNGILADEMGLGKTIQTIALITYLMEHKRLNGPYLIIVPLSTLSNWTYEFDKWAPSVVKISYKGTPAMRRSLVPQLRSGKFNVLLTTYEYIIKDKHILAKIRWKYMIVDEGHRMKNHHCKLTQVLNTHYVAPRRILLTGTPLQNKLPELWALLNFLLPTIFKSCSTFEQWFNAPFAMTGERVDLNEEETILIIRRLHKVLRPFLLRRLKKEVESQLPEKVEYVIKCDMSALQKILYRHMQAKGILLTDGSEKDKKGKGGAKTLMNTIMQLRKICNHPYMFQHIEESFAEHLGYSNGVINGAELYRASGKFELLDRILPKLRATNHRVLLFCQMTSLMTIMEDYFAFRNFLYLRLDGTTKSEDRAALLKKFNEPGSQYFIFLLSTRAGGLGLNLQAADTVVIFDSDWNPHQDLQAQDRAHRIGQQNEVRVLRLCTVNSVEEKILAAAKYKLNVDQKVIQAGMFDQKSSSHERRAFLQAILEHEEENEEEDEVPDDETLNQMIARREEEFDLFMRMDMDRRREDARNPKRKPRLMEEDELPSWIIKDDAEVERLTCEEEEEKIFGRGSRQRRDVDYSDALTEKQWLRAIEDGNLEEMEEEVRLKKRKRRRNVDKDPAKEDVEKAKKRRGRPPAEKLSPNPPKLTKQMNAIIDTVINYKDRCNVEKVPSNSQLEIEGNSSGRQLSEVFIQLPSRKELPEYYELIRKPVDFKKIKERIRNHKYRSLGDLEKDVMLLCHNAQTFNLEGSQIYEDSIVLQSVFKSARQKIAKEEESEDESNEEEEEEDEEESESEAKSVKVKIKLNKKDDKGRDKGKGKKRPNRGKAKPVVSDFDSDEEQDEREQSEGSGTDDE
Sequence of Kappa-type opioid receptor (Homo sapiens) (P41145 whole entry): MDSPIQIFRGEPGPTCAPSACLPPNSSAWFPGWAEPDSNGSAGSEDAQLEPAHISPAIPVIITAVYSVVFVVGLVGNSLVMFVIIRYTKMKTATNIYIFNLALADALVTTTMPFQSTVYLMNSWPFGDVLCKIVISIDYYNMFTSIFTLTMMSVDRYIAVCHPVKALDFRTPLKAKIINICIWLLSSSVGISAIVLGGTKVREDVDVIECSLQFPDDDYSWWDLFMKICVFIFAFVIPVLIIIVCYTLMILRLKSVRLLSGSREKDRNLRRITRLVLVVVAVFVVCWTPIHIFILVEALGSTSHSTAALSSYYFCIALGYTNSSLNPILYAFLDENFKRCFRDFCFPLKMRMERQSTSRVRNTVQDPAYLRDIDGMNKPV

As for `COC[C@H](NC(=O)c1ccn(S(C)(=O)=O)c1)C(=O)Nc1nc(-c2cccc(-c3ccn(C)n3)c2)cs1`, the inhibition in experiment [1] is 9.17%; in experiment [3], 6.68%; in experiment [4], 5.91%; in experiment [7] it was 17.6%; in experiment [8], 10.7%; in experiment [13] it was 10.2%. In addition, the delta Tm Staurosporine positive control in [2] worked out at 6.93; in experiment [5], 7.3; in experiment [9] it was 9.3; in [10], 14; in experiment [11], 15.5; in [12], 1.98. Moreover, in experiment [14], the delta Tm Staurosporine positive control was 7.41. Moreover, the ΔTm in experiment [2] is -1.14; in [5], -0.288; in experiment [9] it was -0.76; in [10], 0.237; in experiment [11], 1.34; in experiment [12], 0.812. The ΔTm in experiment [14] is 0.595. Also, the IC50 in [6] was 0.0138 µM (active).
Consider `C[C@H](NC(=O)c1cn(C2(C#N)CC2)cn1)C(=O)Nc1nc(-c2cccc(-c3ccn(C)n3)c2)cs1`, for which the inhibition in [1] was 12.4%; in experiment [3] it was 6.41%; in [4], 2.43%; in [7] it was 27.4%; in experiment [8], 4.84%; in experiment [13], 11.2%. Also, the delta Tm Staurosporine positive control in [2] worked out at 6.93; in experiment [5], 7.3; in experiment [9] it was 9.3; in experiment [10], 14; in experiment [11], 15.5; in experiment [12], 1.98. The delta Tm Staurosporine positive control in [14] is 7.41. For the same compound, the ΔTm in experiment [2] is -1.33; in [5] it was -0.415; in experiment [9], -0.834; in experiment [10], -0.00623; in experiment [11] it was 0.324; in [12], 0.442. In addition, in [14], the ΔTm is 1.8. The IC50 in experiment [6] is listed as 1.88 µM (not active).
